pEC50, pKd: −log10 of the molar value.
Columns and labels:
[1] = system: Glo-Response ARE-luc2P HEK293 cell line; test: ARE luciferase reporter cell-based assay; conditions: Homo sapiens, HEK293, 24 h, average of results obtained;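 note: luciferase signal tracks Nrf2 activation of the ARE once compounds disrupt KEAP1-Nrf2 binding, read with One-Glo reagent, DMSO serving as low control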
[2] = biological target: Kelch domain of human KEAP1 (321-624 aa) (Homo sapiens (Human), UniProt Q14145); test: KEAP1 KELCH ThermoFluor binding assay; conditions: KEAP Kelch […], 1,8-ANS, pH 7.0, average of results obtained, read-out: Tf Kd;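 note: Ligand-induced melting temperature shift of E. coli-expressed KEAP1 Kelch protein, Kd estimated from concentration-response curves of ΔTm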
Sequence of Kelch domain of human KEAP1 (321-624 aa) (Q14145 321-624): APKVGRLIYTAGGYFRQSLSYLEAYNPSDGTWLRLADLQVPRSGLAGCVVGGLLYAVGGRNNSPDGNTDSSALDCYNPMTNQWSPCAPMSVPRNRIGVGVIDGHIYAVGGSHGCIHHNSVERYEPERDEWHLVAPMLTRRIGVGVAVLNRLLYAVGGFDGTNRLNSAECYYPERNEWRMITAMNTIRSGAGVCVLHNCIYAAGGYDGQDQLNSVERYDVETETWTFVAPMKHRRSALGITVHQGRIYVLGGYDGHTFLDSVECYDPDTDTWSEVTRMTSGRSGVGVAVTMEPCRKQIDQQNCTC
Excerpt: The shift in the melting point described as a ΔTm is proportional to the concentration and affinity of the ligand. The compound potency may be compared as a rank order of either ΔTm values at a single compound concentration or in terms of KD values, estimated from concentration response curves.
The protein was expressed in E. coli with 6His tag that was cleaved prior to receipt for use.
Protein (KEAP Kelch) and compound solutions were dispensed into black 384-well polypropylene PCR microplates (Abgene) and overlayed with silicone oil (1 μL, Fluka, type DC 200) to prevent evaporation.

| Compound | pKd [2] | pEC50 [1] |
| --- | --- | --- |
| Cc1ccc([C@@H](CC(=O)O)c2ccn3c(C(F)(F)F)nnc3c2C)cc1CN1C[C@@H]2CN(C)CCN2c2ncccc2S1(=O)=O (single isomer, unassigned) [Example 179, (*R)-3-(4-Methyl-3-(((*S)-9-methyl-5,5-dioxido-7,7a,8,9,10,11-hexahydro-6H-pyrazino[2,1-d]pyrido[2,3-f][1,2,5]thiadiazepin-6-yl)methyl)phenyl)-3-(8-methyl-3-(trifluoromethyl)-[1,2,4]triazolo[4,3-a]pyridin-7-yl)propanoic Acid] | 7.24 | 5.69 |
| Cc1ccc([C@H](CC(=O)O)c2ccn3c(C(F)(F)F)nnc3c2C)cc1CN1C[C@H]2CN(C)CCN2c2ncccc2S1(=O)=O (single isomer, unassigned) [Example 181, (*S)-3-(4-Methyl-3-(((*R)-9-methyl-5,5-dioxido-7,7a,8,9,10,11-hexahydro-6H-pyrazino[2,1-d]pyrido[2,3-f][1,2,5]thiadiazepin-6-yl)methyl)phenyl)-3-(8-methyl-3-(trifluoromethyl)-[1,2,4]triazolo[4,3-a]pyridin-7-yl)propanoic Acid] | 6.96 | 5.95 |
| Cc1ccc([C@@H](CC(=O)O)c2ccn3c(C(F)(F)F)nnc3c2C)cc1CN1C[C@H]2CN(C)CCN2c2ncccc2S1(=O)=O (single isomer, unassigned) [Example 182, (*R)-3-(4-Methyl-3-(((*R)-9-methyl-5,5-dioxido-7,7a,8,9,10,11-hexahydro-6H-pyrazino[2,1-d]pyrido[2,3-f][1,2,5]thiadiazepin-6-yl)methyl)phenyl)-3-(8-methyl-3-(trifluoromethyl)-[1,2,4]triazolo[4,3-a]pyridin-7-yl)propanoic Acid] | 6.74 | 5.86 |
| Cc1ccc([C@@H](CC(=O)O)c2ccn3c(C(F)(F)F)nnc3c2C)cc1CN1CC2(CC2)N(C)c2ncccc2S1(=O)=O (single isomer, unassigned) [Example 185, (*R)-3-(4-Methyl-3-((5′-methyl-1′,1′-dioxido-5′H-spiro[cyclopropane-1,4′-pyrido[2,3-f][1,2,5]thiadiazepin]-2′(3′H)-yl)methyl)phenyl)-3-(8-methyl-3-(trifluoromethyl)-[1,2,4]triazolo[4,3-a]pyridin-7-yl)propanoic Acid] | 7.92 | 5.57 |
| CC[C@@H]1CN(Cc2cc([C@H](CC(=O)O)c3ccn4c(C(F)(F)F)nnc4c3C)ccc2C)S(=O)(=O)c2cccnc2O1 (single isomer, unassigned) [Example 189, (*S)-3-(3-(((R)-4-Ethyl-1,1-dioxido-3,4-dihydro-2H-pyrido[2,3-b][1,4,5]oxathiazepin-2-yl)methyl)-4-methylphenyl)-3-(8-methyl-3-(trifluoromethyl)-[1,2,4]triazolo[4,3-a]pyridin-7-yl)propanoic Acid] | > 9.00 | 7.96 |
| Cc1ccc([C@H](CC(=O)O)c2ccn3c(C(F)(F)F)nnc3c2C)cc1CN1C[C@H]2COCCN2c2ncc(C#N)cc2S1(=O)=O (single isomer, unassigned) [Example 196, (*S)-3-(3-(((*S)-3-Cyano-5,5-dioxido-7a,8,10,11-tetrahydro-[1,4]oxazino[3,4-d]pyrido[2,3-f][1,2,5]thiadiazepin-6(7H)-yl)methyl)-4-methylphenyl)-3-(8-methyl-3-(trifluoromethyl)-[1,2,4]triazolo[4,3-a]pyridin-7-yl)propanoic Acid] | > 9.00 | 7.82 |
| Cc1ccc([C@H](CC(=O)O)c2ccn3c(C(F)(F)F)nnc3c2C)cc1CN1C[C@H]2COCCN2c2ncc(Cl)cc2S1(=O)=O (single isomer, unassigned) [Example 197, (*S)-3-(3-(((*S)-3-Chloro-5,5-dioxido-7a,8,10,11-tetrahydro-[1,4]oxazino[3,4-d]pyrido[2,3-f][1,2,5]thiadiazepin-6(7H)-yl)methyl)-4-methylphenyl)-3-(8-methyl-3-(trifluoromethyl)-[1,2,4]triazolo[4,3-a]pyridin-7-yl)propanoic Acid] | > 9.00 | 8.74 |
| Cc1ccc([C@H](CC(=O)O)c2ccn3c(C(F)(F)F)nnc3c2C)cc1CN1CC2(CC2)Oc2ncc(C#N)cc2S1(=O)=O (single isomer, unassigned) [Example 200, (*S)-3-(3-((8′-Cyano-1′,1′-dioxidospiro[cyclopropane-1,4′-pyrido[2,3-b][1,4,5]oxathiazepin]-2′(3′H)-yl)methyl)-4-methylphenyl)-3-(8-methyl-3-(trifluoromethyl)-[1,2,4]triazolo[4,3-a]pyridin-7-yl)propanoic Acid] | > 9.00 | 7.21 |
| Cc1ccc([C@H](CC(=O)O)c2ccn3c(C(F)(F)F)nnc3c2C)cc1CN1C[C@H]2CCCCN2c2nc(C(N)=O)ccc2S1(=O)=O (single isomer, unassigned) [Example 205, (*S)-3-(3-(((*R)-2-Carbamoyl-5,5-dioxido-7,7a,8,9,10,11-hexahydro-6H-dipyrido[2,1-d:2′,3′-f][1,2,5]thiadiazepin-6-yl)methyl)-4-methylphenyl)-3-(8-methyl-3-(trifluoromethyl)-[1,2,4]triazolo[4,3-a]pyridin-7-yl)propanoic Acid] | > 9.00 | 6.89 |

Continued, in another order:

| pKd [2] | Compound | pEC50 [1] |
| --- | --- | --- |
| 7.52 | Cc1ccc([C@H](CC(=O)O)c2ccn3c(C(F)(F)F)nnc3c2C)cc1CN1C[C@@H]2CN(C)CCN2c2ncccc2S1(=O)=O (single isomer, unassigned) [Example 178, (*S)-3-(4-Methyl-3-(((S)-9-methyl-5,5-dioxido-7,7a,8,9,10,11-hexahydro-6H-pyrazino[2,1-d]pyrido[2,3-f][1,2,5]thiadiazepin-6-yl)methyl)phenyl)-3-(8-methyl-3-(trifluoromethyl)-[1,2,4]triazolo[4,3-a]pyridin-7-yl)propanoic Acid] | 6.36 |
| 8.85 | Cc1ccc([C@H](CC(=O)O)c2ccn3c(C(F)(F)F)nnc3c2C)cc1CN1CC2(CC2)N(C)c2ncccc2S1(=O)=O (single isomer, unassigned) [Example 184, (*S)-3-(4-Methyl-3-((5′-methyl-1′,1′-dioxido-5′H-spiro[cyclopropane-1,4′-pyrido[2,3-f][1,2,5]thiadiazepin]-2′(3′H)-yl)methyl)phenyl)-3-(8-methyl-3-(t*rifluoromethyl)-[1,2,4]triazolo[4,3-a]pyridin-7-yl)propanoic Acid] | 6.89 |
| > 9.00 | Cc1ccc([C@@H](CC(=O)O)c2ccn3c(C(F)(F)F)nnc3c2C)cc1CN1C[C@]2(C)CCCN2c2ncccc2S1(=O)=O (single isomer, unassigned) [Example 187, (*R)-3-(4-Methyl-3-(((*S)-7a-methyl-5,5-dioxido-7a,8,9,10-tetrahydropyrido[2,3-f]pyrrolo[2,1-d][1,2,5]thiadiazepin-6(7H)-yl)methyl)phenyl)-3-(8-methyl-3-(trifluoromethyl)-[1,2,4]triazolo[4,3-a]pyridin-7-yl)propanoic Acid] | 6.26 |
| > 9.00 | CC[C@@H]1CN(Cc2cc([C@@H](CC(=O)O)c3ccn4c(C(F)(F)F)nnc4c3C)ccc2C)S(=O)(=O)c2cccnc2O1 (single isomer, unassigned) [Example 190, (*R)-3-(3-(((R)-4-Ethyl-1,1-dioxido-3,4-dihydro-2H-pyrido[2,3-b][1,4,5]oxathiazepin-2-yl)methyl)-4-methylphenyl)-3-(8-methyl-3-(trifluoromethyl)-[1,2,4]triazolo[4,3-a]pyridin-7-yl)propanoic Acid] | 7.24 |
| > 9.00 | Cc1ccc([C@H](CC(=O)O)c2ccn3c(C(F)(F)F)nnc3c2C)cc1CN1C[C@@H]2CCCCN2c2ncc(Cl)cc2S1(=O)=O (single isomer, unassigned) [Example 192, (*S)-3-(3-(((*S)-3-Chloro-5,5-dioxido-7,7a,8,9,10,11-hexahydro-6H-dipyrido[2,1-d:2′,3′-f][1,2,5]thiadiazepin-6-yl)methyl)-4-methylphenyl)-3-(8-methyl-3-(trifluoromethyl)-[1,2,4]triazolo[4,3-a]pyridin-7-yl)propanoic Acid] | 8.85 |
| > 9.00 | Cc1ccc([C@H](CC(=O)O)c2ccn3c(C(F)(F)F)nnc3c2C)cc1CN1CC2(CC2)Oc2ncc(Cl)cc2S1(=O)=O (single isomer, unassigned) [Example 195, (*S)-3-(3-((8′-Chloro-1′,1′-dioxidospiro[cyclopropane-1,4′-pyrido[2,3-b][1,4,5]oxathiazepin]-2′(3′H)-yl)methyl)-4-methylphenyl)-3-(8-methyl-3-(trifluoromethyl)-[1,2,4]triazolo[4,3-a]pyridin-7-yl)propanoic Acid] | 8.24 |
| 6.52 | Cc1ccc([C@H](CC(=O)O)c2ccn3c(C(F)(F)F)nnc3c2C)cc1CN1CC2(CC2)Oc2ncc(C(N)=O)cc2S1(=O)=O (single isomer, unassigned) [Example 201, (*S)-3-(3-((8′-Carbamoyl-1′,1′-dioxidospiro[cyclopropane-1,4′-pyrido[2,3-b][1,4,5]oxathiazepin]-2′(3′H)-yl)methyl)-4-methylphenyl)-3-(8-methyl-3-(trifluoromethyl)-[1,2,4]triazolo[4,3-a]pyridin-7-yl)propanoic Acid] | < 4.70 |
| > 9.00 | Cc1ccc([C@H](CC(=O)O)c2ccn3c(C(F)(F)F)nnc3c2C)cc1CN1C[C@H]2CCCN2c2ncc(C#N)cc2S1(=O)=O (single isomer, unassigned) [Example 207, (*S)-3-(3-(((R)-3-Cyano-5,5-dioxido-7a,8,9,10-tetrahydropyrido[2,3-f]pyrrolo[2,1-d][1,2,5]thiadiazepin-6(7H)-yl)methyl)-4-methylphenyl)-3-(8-methyl-3-(trifluoromethyl)-[1,2,4]triazolo[4,3-a]pyridin-7-yl)propanoic Acid] | 7.96 |
